Test results as given in PubChem BioAssay (NCI).
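Dose response: 5 concentrations. Exposure: 48 h. Format: 96-well plates. Endpoint: linear interpolation; highest concentration if not reached. GI50 marks 50% less growth. TGI: total growth inhibition.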

How the values were obtained:
Test in all cases: inhibition of tumour cell growth, NCI panel, 48 h
MDA-MB-435 = test system: MDA-MB-435
786-0 renal = test system: 786-0 renal
NCI-H23 lung = test system: NCI-H23 lung
CAKI-1 renal = test system: CAKI-1 renal
BT-549 breast = test system: BT-549 breast
LOX IMVI melanoma = test system: LOX IMVI melanoma
SF-268 CNS = test system: SF-268 CNS
A498 renal = test system: A498 renal
HCT-15 colon = test system: HCT-15 colon
SN12C renal = test system: SN12C renal
MDA-MB-231 breast = test system: MDA-MB-231 breast
EKVX NSCLC = test system: EKVX NSCLC
NCI/ADR-RES ovarian = test system: NCI/ADR-RES ovarian
TK-10 renal = test system: TK-10 renal
MDA-MB-468 breast = test system: MDA-MB-468 breast
UO-31 renal = test system: UO-31 renal
COLO 205 colon = test system: COLO 205 colon
HCC-2998 colon = test system: HCC-2998 colon
SR leukemia = test system: SR leukemia
DU-145 prostate = test system: DU-145 prostate
HL-60(TB) leukemia = test system: HL-60(TB) leukemia
CCRF-CEM leukemia = test system: CCRF-CEM leukemia
SK-MEL-2 melanoma = test system: SK-MEL-2 melanoma
U251 CNS = test system: U251 CNS
NCI-H226 lung = test system: NCI-H226 lung
SF-295 CNS = test system: SF-295 CNS
KM12 colon = test system: KM12 colon
OVCAR-4 ovarian = test system: OVCAR-4 ovarian
MCF7 breast = test system: MCF7 breast
SK-OV-3 ovarian = test system: SK-OV-3 ovarian

S=C(Nc1ccc(OCc2nc3ccc(Cl)cc3[nH]2)cc1)NC1CCCCC1
TGI (MDA-MB-435): 22 µM
GI50 (786-0 renal): 7.4 µM
TGI (786-0 renal): 21.4 µM
GI50 (NCI-H23 lung): 8.56 µM
TGI (NCI-H23 lung): 21.4 µM
GI50 (CAKI-1 renal): 3.47 µM
TGI (CAKI-1 renal): 15.5 µM
GI50 (BT-549 breast): 15 µM
TGI (BT-549 breast): 29.1 µM
GI50 (LOX IMVI melanoma): 2.83 µM
TGI (LOX IMVI melanoma): 11.5 µM
GI50 (SF-268 CNS): 8.19 µM
TGI (SF-268 CNS): 24.5 µM
GI50 (A498 renal): 11.2 µM
TGI (A498 renal): 23.8 µM
GI50 (HCT-15 colon): 5.5 µM
TGI (HCT-15 colon): 18.7 µM
GI50 (SN12C renal): 8.32 µM
TGI (SN12C renal): 21.2 µM
GI50 (MDA-MB-231 breast): 7.42 µM
TGI (MDA-MB-231 breast): 20.4 µM
GI50 (EKVX NSCLC): 7.23 µM
TGI (EKVX NSCLC): 20.9 µM
GI50 (NCI/ADR-RES ovarian): 9.57 µM
TGI (NCI/ADR-RES ovarian): 25.3 µM
GI50 (TK-10 renal): 12.4 µM
TGI (TK-10 renal): 24.9 µM
GI50 (MDA-MB-468 breast): 2.97 µM
TGI (MDA-MB-468 breast): 13.2 µM
GI50 (UO-31 renal): 3.88 µM
TGI (UO-31 renal): 16.6 µM
GI50 (COLO 205 colon): 10.2 µM
TGI (COLO 205 colon): 27.6 µM
GI50 (HCC-2998 colon): 3.12 µM
TGI (HCC-2998 colon): 12.5 µM
GI50 (SR leukemia): 2.61 µM
TGI (SR leukemia): 8.45 µM
GI50 (DU-145 prostate): 11.3 µM
TGI (DU-145 prostate): 27.7 µM
GI50 (HL-60(TB) leukemia): 2.63 µM
TGI (HL-60(TB) leukemia): 13.2 µM
GI50 (CCRF-CEM leukemia): 3.59 µM
TGI (CCRF-CEM leukemia): 16.6 µM
GI50 (SK-MEL-2 melanoma): 11.4 µM
TGI (SK-MEL-2 melanoma): 24.5 µM
GI50 (U251 CNS): 11.7 µM
TGI (U251 CNS): 24.8 µM
GI50 (NCI-H226 lung): 10.8 µM
TGI (NCI-H226 lung): 29.1 µM
GI50 (SF-295 CNS): 9.72 µM
TGI (SF-295 CNS): 22.9 µM
GI50 (KM12 colon): 4.8 µM
TGI (KM12 colon): 17.5 µM
GI50 (OVCAR-4 ovarian): 6.82 µM
TGI (OVCAR-4 ovarian): 25.1 µM
GI50 (MCF7 breast): 2.87 µM
TGI (MCF7 breast): 12.4 µM
GI50 (SK-OV-3 ovarian): 13.4 µM
TGI (SK-OV-3 ovarian): 27 µM
